Measured values from PMC3079261 (Tetrahedron letters, 2011).

Molecular target: FGFR1 kinase domain (Homo sapiens, UniProt P11362)
Assay: ALPHAScreen assay of inhibition of phosphorylation by FGFR1 kinase
Assay type: biochemical

FGFR1 kinase domain, sequence (P11362 478-767 limits assumed): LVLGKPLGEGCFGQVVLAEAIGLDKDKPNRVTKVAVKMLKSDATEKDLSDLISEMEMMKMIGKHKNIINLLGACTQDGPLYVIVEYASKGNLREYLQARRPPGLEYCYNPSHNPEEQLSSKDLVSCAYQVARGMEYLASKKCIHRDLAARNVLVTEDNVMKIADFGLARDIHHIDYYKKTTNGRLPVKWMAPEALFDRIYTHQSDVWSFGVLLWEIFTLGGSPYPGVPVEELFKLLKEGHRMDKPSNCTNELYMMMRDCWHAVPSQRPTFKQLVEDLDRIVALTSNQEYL

| IC50 | Structure (SMILES) |
| --- | --- |
| 28 µM | COc1cc(OC)cc(-c2ccc3c(c2)sc2nc(-c4ccc(OCC(=O)O)c(OC)c4)[nH]c(=O)c23)c1 [compound 6, 2-(4-(7-(3,5-dimethoxyphenyl)-4-oxo-3,4-dihydrobenzo[4,5]thieno[2,3-d]pyrimidin-2-yl)-2-methoxyphenoxy)acetic acid] |
| 21 µM | COc1cc(OC)cc(-c2ccc3c(c2)sc2nc(CCC(=O)O)[nH]c(=O)c23)c1 [compound 7, 3-(7-(3,5-dimethoxyphenyl)-4-oxo-3,4-dihydrobenzo[4,5]thieno[2,3-d]pyrimidin-2-yl)propanoic acid] |
